Data from article PMC7915858, “Complementary Effects of Carbamylated and Citrullinated LL37 in Autoimmunity and Inflammation in Systemic Lupus Erythematosus” (International Journal of Molecular Sciences, 2021).

What was measured:
[1] = system: native LL37-P1-specific T-cells (HLA-DRB1*1501 tetramer); assay: Peptide-MHC-tetramer staining of T-cells after PBMC stimulation; format: cell-based, human
Protocol: Peptide-MHC-tetramers were from ImmunAware (Denmark). Staining was performed for 40 min with 1microL of tetramer suspension at 37 °C, followed by staining for CD4 (4 °C, 20 min), without washing. After incubation with anti-CD4 antibody, cells were washed, resuspended in PBS and kept at 4 °C. Before flow cytometry-acquisition, cells were labeled with PercP-conjugated 7-AAD to exclude dead cells. The peptide-MHC-tetramers used in this study are: the HLA-DR15-P1: tetramer of HLA-DRB1*1501 LLGDFFRKSKEKIGK (corresponding to the first aa at the NH2-term of the mature native LL37), (PE-conjugated) and the control peptide-MHC-tetramer called DR15-ctr: tetramer of HLA-DRB1*1501 […]1-169-185 (PE-conjugated). The other couple of peptide-MHC-tetramers used were HLA-DRB5*0101 loaded with the same LL37 epitope as above and the control tetramer HLA-DRB5*0101 loaded with the control epitope PVSKMRMATPLLMQA (CLIP-derived).

[2] = system: human DNA; assay: Binding of peptides to DNA by EMSA; conditions: 2% agarose gel
Protocol: Human DNA was extracted from PBMCs, as reported and was fragmented by sonication. Five milligrams of DNA in a volume of 300 μL were fragmented using the Sonics Vibra Cell sonicator (Newtown, CT, USA), with the following settings: 2, 4 and 10 sonication cycles (30 s on, 30 s off, in ice) to obtain DNA fragment sizes between 100 and 1000 bp. The resulting size distribution was controlled by 2% agarose gel electrophoresis.
EMSA was performed by mixing various μM concentrations of LL37 or carb-LL37 or cit-LL37 (or AMP S100A8, as negative control), with appropriate concentration of DNA, which respected the appropriate protein–DNA ratio used in pDC-stimulation assays. DNA alone and the mixtures were run on a 2% agarose gel to evidence the delay in migration of the DNA, due to the binding to the tested proteins. DNA on the gel was visualized by with SYBR Safe DNA gel staining (ThermoFisher Scientific).

[3] = system: SLE-affected kidney biopsies; assay: Confocal microscopy of SLE renal biopsies; parameters: species or system human; conditions: antibody RRB640, lupus nephritis class IV
Protocol: Paraffin-included SLE renal biopsies were obtained from Policlinico Umberto I, Rome, IT. Biopsies were de-paraffinized in xylene (5 min, two times), followed by passages in: absolute ethanol (3 min), 95% ethanol in water (3 min), 80% ethanol in water (3 min), 70% ethanol in water (3 min) and antigen retrieval (5 min at 95 °C in 10 mM sodium citrate, pH 6.0). […] Slides were washed three times for 3 min under agitation with washing buffer and incubated with donkey anti-mouse or anti-rabbit secondary antibody, conjugated with AlexaFluor 647, Alexa Fluor 568 or 594 or AlexaFluor 488 (Abcam, Cambridge, UK) depending on the combinations of markers analyzed (in humidified chamber). Slides were washed again in washing buffer and mounted in Prolong Gold anti-fade media containing a DNA dye (DAPI) (Molecular Probes), before analysis with a confocal microscope, objectives 20× or 40× and 60× in oil immersion. Images were taken by a FV1000 confocal microscope (Olympus, Tokyo, Japan), using a Olympus planapo objective 40× or 60× oil A.N. 1,42. Excitation light was obtained by a Laser Dapi 408 nm for DAPI, an Argon Ion Laser (488 nm) for FITC (Alexa 488), a Diode Laser HeNe (561 nm) for Alexa 568 and a Red Diode Laser (638 nm) for Alexa 647. DAPI emission was recorded from 415 to 485 nm, FITC emission was recorded from 495 to 550 nm, Alexa 568 from 583 to 628 nm and Alexa 647, from 634 to 750 nm.

[4] = system: pDCs; conditions: LL37 citrullinated at all five arginines; cited from earlier work
Text: LL37 is able to activate innate immune cells and B-cells after forming complexes with nucleic acids in a special molecular conformation, suitable for TLR stimulation. PDCs, as well as B-cells, are both activated by LL37-DNA or LL37-RNA complexes.

[5] = 7 days carb-LL37 stimulation, control tetramer, tetramer/CXCR5 plots
[6] = 7 days carb-LL37 stimulation, tetramer loaded with native LL37 epitope P1, tetramer/CXCR5 plots

| Substance | Percent printed first in Figure S7b plot (gate not recoverable from text) [1, 5] | Percent printed second in Figure S7b plot (gate not recoverable from text) [1, 5] | Percent printed third in Figure S7b plot (gate not recoverable from text) [1, 5] | Percent printed second in Figure S7a plot (gate not recoverable from text) [1, 6] | Percent printed third in Figure S7a plot (gate not recoverable from text) [1, 6] | CXCR5 expression on LL37-specific (tetramer-positive) T-cells ([1]; SLE PBMC stimulated, Figure 5d) | Expansion of T-cells specific for the native LL37 epitope ([1]; SLE PBMC, tetramer staining, versus control tetramer) | Concentration at which DNA binding ability is lost [2] | DNA binding ability ([2]; 3-to-5 experiments) | Presence in SLE-affected kidney biopsies and co-localization with IgG [3] | Ability to transform cell-free DNA into an inducer of IFN-I by human pDCs [4] |
| --- | --- | --- | --- | --- | --- | --- | --- | --- | --- | --- | --- |
| L*LGDFFRK*SK*EK*IGKEFK*RIVQRIK*DFLRNLVPRTES [carb-LL37] | 0.0% | 0.19% | 0.01% | 2.00% | 2.20% | variable but significant expression of the TFH marker CXCR5 | expansion of T-cells specific for the native LL37 epitope | 3 µM | does not completely abolish the LL37 DNA binding ability | present in SLE-affected kidney biopsies and partially co-localizes with immunoglobulin (Ig)-G | – |
| LLGDFFR(cit)KSKEKIGKEFKR(cit)IVQR(cit)IKDFLR(cit)NLVPR(cit)TES [cit-LL37, LL37 citrullinated at all five arginine sites] | – | – | – | – | – | – | – | – | – | – | loose ability to transforms the “cell-free” DNA into an inducer of IFN-I by human pDCs |
